{"source": "patent US20250129095A1", "about": "“ANNULATED 2-AMINO-3-CYANO THIOPHENES AND DERIVATIVES FOR THE TREATMENT OF CANCER” (Boehringer Ingelheim Int'l GmbH Corp., priority 2021, published 2025)", "key": {"Caco-2 assay": {"experiment": "Caco-2 assay", "type": "in vitro ADME", "conditions": "human, 10 μM test compound, pH 7.4; for Papp A→B at 90 min, 10 μM: Caco-2, apical to basolateral (a-b) permeability, read-out: Caco PappAB; for efflux ratio at 90 min, 10 μM: Caco-2 efflux ratio PappBA/PappAB, read-out: Caco ER", "source_text": "The assay provides information on the potential of a compound to pass the cell membrane, on the extent of oral absorption as well as on whether the compound is actively transported by uptake and/or efflux transporters. Permeability measurements across polarized, confluent Caco-2 cell monolayers grown on permeable filter supports (Corning, catalog #3391) are used. […] The receiver and donor compartments contain 0.25% bovine serum albumine (BSA) in assay buffer. Passive diffusion and/or active transport of compounds across the monolayer is measured in both apical to basolateral (a-b) and basolateral to apical (b-a) direction. a-b permeability (PappAB) represents drug absorption from the intestine into the blood and b-a permeability (PappBA) drug secretion from the blood back into the intestine via both passive permeability as well as active transport mechanisms mediated by efflux and uptake transporters that are expressed on the Caco-2 cells. After a pre-incubation of 25-30 min at 37° C., at predefined time points (0, 30, 60 and 90 min), samples were taken from the receiver and donor compartment, respectively.\nConcentrations of test compounds in samples were measured by HPLC/MS/MS, samples from the donor compartment were diluted 1:50 (v:v) with assay buffer, samples from receiver compartment were measured without dilution.\nApparent permeabilities in a-b (PappAB) and b-a (PappBA) directions are calculated according to the formula:\n[formula] • Vrec [mL]: buffer volume in receiver compartment • Cdon [pmol/mL]: concentration of test compound in donor compartment at t=0 • ΔCrec: difference between concentrations of test compound in receiver compartment at start and end of incubation time • Δt: Incubation time • Vrec·ΔCrec/Δt [[…]]: Amount of compound transferred to receiver compartment per time • A [cm^2]: filter surface\nCaco-2 efflux ratios (ER) are calculated as the ratio of PappBA/PappAB."}, "KRAS (G12V)::SOS1": {"molecular_target": "T1, KRAS (G12V)::SOS1 (Homo sapiens, UniProt P01116, C118S/G12V)", "T1 construct": "KRAS (G12V) 1-169, N-terminal 6His-tag for purification, cleaved off; 6His-tag (N, cleaved yes); TEV cleavage site; made in house", "T1 sequence (P01116 1-169 isoform P01116-2 G12V/C118S)": "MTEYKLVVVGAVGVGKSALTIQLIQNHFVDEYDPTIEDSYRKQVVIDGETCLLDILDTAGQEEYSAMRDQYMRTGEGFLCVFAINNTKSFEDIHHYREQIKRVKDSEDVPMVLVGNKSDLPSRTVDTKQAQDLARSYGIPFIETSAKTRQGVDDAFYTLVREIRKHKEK", "experiment": "KRAS::SOS1 AlphaScreen binding assay, KRAS G12V", "source_text": "(§1) This assay can be used to examine the potency with which compounds according to the invention binding to (mutated) KRAS inhibit the protein-protein interaction between SOS1 and (mutated) KRAS e.g., KRAS WT, KRAS G12C, KRAS G12D, KRAS G12V, KRAS G13D. […] Low IC50 values in this assay setting are indicative of strong inhibition of protein-protein interaction between SOS1 and KRAS:\n(§2) These assays measure the inhibitory effect of compounds on KRAS mutant protein-protein interactions using the Alpha Screen technology by Perkin Elmer\n(§3) The following (mutant) enzyme forms of KRAS and interacting proteins are used in these assays at the given concentrations: • KRAS (G12D) 1-169, N-terminal 6His-tag, C-terminal avi-tag (Xtal BioStructures, Inc.); final assay concentration 10 nM and SOS1 564-1049, N-terminal 229 GST-tag, TEV cleavage site (Viva Biotech Ltd); final assay concentration 5 nM; • KRAS (G12C) 1-169, N-terminal 6His-tag for purification, cleaved off, C-terminal avi-tag, biotinylated, mutations: C51S, C80L, C118S (in house); final assay concentration 7.5 nM and SOS1 564-1049, N-terminal 229 GST-tag, TEV cleavage site (Viva Biotech Ltd); final assay concentration 5 nM; • KRAS (G12V) 1-169, N-terminal 6His-tag for purification, cleaved off, C-terminal avi-tag, biotinylated, TEV cleavage site, mutation: C118S, GDP loaded (in house); final assay concentration 10 nM and SOS1 564-1049, N-terminal 229 GST-tag, TEV cleavage site (Viva Biotech Ltd); final assay concentration 10 nM; • KRAS (G13D) 1-169, N-terminal 6His-tag for purification, cleaved off, C-terminal avi-tag, biotinylated, TEV cleavage site, mutation: C118S, GDP loaded (in house); final assay concentration 10 nM and SOS1 564-1049, N-terminal 229 GST-tag, TEV cleavage site (Viva Biotech Ltd); final assay concentration 10 nM; • KRAS (WT) 1-169, N-terminal 6His-tag for purification, cleaved off, C-terminal avi-tag, biotinylated, TEV cleavage site, mutation: C118S, GDP loaded (in house); final assay concentration 10 nM and SOS1 564-1049, N-terminal 229 GST-tag, TEV cleavage site (Viva Biotech Ltd); final assay concentration 10 nM.\n(§4) Test compounds dissolved in DMSO are dispensed onto assay plates (Proxiplate 384 PLUS, white, PerkinElmer; 6008289) using an Access Labcyte Workstation with the Labcyte Echo 55×. For the chosen highest assay concentration of 100 μM, 150 nL of compound solution are transferred from a 10 mM DMSO compound stock solution. A series of eleven fivefold dilutions per compound are transferred to the assay plate, compound dilutions are tested in duplicates. DMSO are added as backfill to a total volume of 150 nL.\n(§5) The assays run on a fully automated robotic system in a darkened room below 100 Lux. To 150 nl of compound dilution 10 μl of a mix including KRAS mutant protein, SOS1 (final assay concentrations see above) and GDP nucleotide (Sigma G7127; final assay concentration 10 μM) in assay buffer (1×PBS, 0.1% BSA, 0.05% Tween 20) are added into columns 1-24.\n(§6) After 30 minutes incubation time 5 μl of Alpha Screen bead mix in assay buffer are added into columns 1-23. Bead mix consists of AlphaLISA Glutathione Acceptor Beads (PerkinElmer, Cat No AL109) and AlphaScreen Streptavidin Donor Beads (PerkinElmer Cat No 6760002) in assay buffer at a final assay concentration of 10 μg/ml each.\n(§7) Plates are kept at room temperature in a darkened incubator. After an additional 60 minutes incubation time the signal is measured in a PerkinElmer Envision HTS Multilabel Reader using the AlphaScreen specs from PerkinElmer.\n(§8) Each plate contains up to 16 wells of a negative control depending on the dilution procedure (platewise or serial) (DMSO instead of test compound; with KRAS mutant::SOS1 GDP mix and bead mix; column 23) and 16wells of a positive control (DMSO instead of test compound; with KRAS mutant::SOS1 GDP mix w/o bead mix; column 24).\n(§9) As internal control known inhibitors of KRAS mutant::SOS1 interaction can be measured on each compound plate. […]"}, "KRAS (G12C)::SOS1": {"molecular_target": "T2, KRAS (G12C)::SOS1 (Homo sapiens, UniProt P01116, C118S/C51S/C80L/G12C)", "T2 construct": "KRAS (G12C) 1-169, N-terminal 6His-tag for purification, cleaved off; 6His-tag (N, cleaved yes); made in house", "T2 sequence (P01116 1-169 isoform P01116-2 G12C/C51S/C80L/C118S)": "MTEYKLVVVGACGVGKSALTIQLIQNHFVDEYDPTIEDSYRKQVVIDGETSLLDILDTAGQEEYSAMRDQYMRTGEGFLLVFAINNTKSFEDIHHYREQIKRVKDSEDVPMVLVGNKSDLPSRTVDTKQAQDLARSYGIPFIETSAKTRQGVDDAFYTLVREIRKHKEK", "experiment": "KRAS::SOS1 AlphaScreen binding assay, KRAS G12C", "conditions": "read-out: KRASG12C IC50", "source_text": "as §1, §2, §3, §4, §5, §6, §7, §8, §9"}}, "data": [{"smiles": "C[C@H](Oc1cc(Nc2ncco2)nc(-c2noc3c2CCC[C@@]32CCCc3sc(N)c(C#N)c32)n1)[C@@H]1CCCN1C", "note": "[II-13]", "values": [{"measurement": "Papp A→B at 90 min, 10 μM", "setting": "Caco-2 assay", "result": 5.2, "unit": "×10⁻⁶ cm/s"}, {"measurement": "efflux ratio at 90 min, 10 μM", "setting": "Caco-2 assay", "result": 3.1}, {"measurement": "IC50", "setting": "KRAS (G12V)::SOS1", "result": 2, "unit": "nM"}, {"measurement": "IC50", "setting": "KRAS (G12C)::SOS1", "result": 2, "unit": "nM"}]}, {"smiles": "C[C@H](Oc1cc(Nc2ncccn2)nc(-c2noc3c2CCC[C@@]32CCCc3sc(N)c(C#N)c32)n1)[C@@H]1CCCN1C", "note": "[II-17]", "values": [{"measurement": "Papp A→B at 90 min, 10 μM", "setting": "Caco-2 assay", "result": 3.9, "unit": "×10⁻⁶ cm/s"}, {"measurement": "efflux ratio at 90 min, 10 μM", "setting": "Caco-2 assay", "result": 5}, {"measurement": "IC50", "setting": "KRAS (G12V)::SOS1", "result": 2, "unit": "nM"}, {"measurement": "IC50", "setting": "KRAS (G12C)::SOS1", "result": 2, "unit": "nM"}]}, {"smiles": "C[C@H](Oc1cc(OCC2(N(C)C)COC2)nc(-c2noc3c2CCC[C@@]32CCCc3sc(N)c(C#N)c32)n1)[C@@H]1CCCN1C", "note": "[II-22]", "values": [{"measurement": "Papp A→B at 90 min, 10 μM", "setting": "Caco-2 assay", "result": 2.6, "unit": "×10⁻⁶ cm/s"}, {"measurement": "efflux ratio at 90 min, 10 μM", "setting": "Caco-2 assay", "result": 15.5}, {"measurement": "IC50", "setting": "KRAS (G12V)::SOS1", "result": 2, "unit": "nM"}, {"measurement": "IC50", "setting": "KRAS (G12C)::SOS1", "result": 2, "unit": "nM"}]}, {"smiles": "COc1c(OCC2(N(C)C)COC2)nc(-c2noc3c2CCC[C@@]32CCCc3sc(N)c(C#N)c32)nc1O[C@@H](C)[C@@H]1CCCN1C", "note": "[II-25]", "values": [{"measurement": "Papp A→B at 90 min, 10 μM", "setting": "Caco-2 assay", "result": 2.5, "unit": "×10⁻⁶ cm/s"}, {"measurement": "efflux ratio at 90 min, 10 μM", "setting": "Caco-2 assay", "result": 13.6}, {"measurement": "IC50", "setting": "KRAS (G12V)::SOS1", "result": 2, "unit": "nM"}, {"measurement": "IC50", "setting": "KRAS (G12C)::SOS1", "result": 2, "unit": "nM"}]}, {"smiles": "C[C@H](Oc1cc(O[C@@H]2CNC[C@@H]2F)nc(-c2noc3c2CCC[C@@]32CCCc3sc(N)c(C#N)c32)n1)[C@@H]1CCCN1C", "note": "[II-29]", "values": [{"measurement": "Papp A→B at 90 min, 10 μM", "setting": "Caco-2 assay", "result": 0.9, "unit": "×10⁻⁶ cm/s"}, {"measurement": "efflux ratio at 90 min, 10 μM", "setting": "Caco-2 assay", "result": 25.5}, {"measurement": "IC50", "setting": "KRAS (G12V)::SOS1", "result": 2, "unit": "nM"}, {"measurement": "IC50", "setting": "KRAS (G12C)::SOS1", "result": 2, "unit": "nM"}]}, {"smiles": "CO[C@@H]1C[C@@H]([C@H](C)Oc2cc(O[C@@H]3CNC3(C)C)nc(-c3noc4c3CCC[C@@]43CCCc4sc(N)c(C#N)c43)n2)N(C)C1", "note": "[II-30]", "values": [{"measurement": "Papp A→B at 90 min, 10 μM", "setting": "Caco-2 assay", "result": 0.2, "unit": "×10⁻⁶ cm/s"}, {"measurement": "efflux ratio at 90 min, 10 μM", "setting": "Caco-2 assay", "result": 125}, {"measurement": "IC50", "setting": "KRAS (G12V)::SOS1", "result": 2, "unit": "nM"}, {"measurement": "IC50", "setting": "KRAS (G12C)::SOS1", "result": 1, "unit": "nM"}]}, {"smiles": "C[C@H](Oc1cc(O[C@@H]2CNC2(C)C)nc(-c2noc3c2CCC[C@@]32CCCc3sc(N)c(C#N)c32)n1)[C@@H]1C[C@@H](F)CN1C", "note": "[II-31]", "values": [{"measurement": "Papp A→B at 90 min, 10 μM", "setting": "Caco-2 assay", "result": 0.8, "unit": "×10⁻⁶ cm/s"}, {"measurement": "efflux ratio at 90 min, 10 μM", "setting": "Caco-2 assay", "result": 50.7}, {"measurement": "IC50", "setting": "KRAS (G12V)::SOS1", "result": 2, "unit": "nM"}, {"measurement": "IC50", "setting": "KRAS (G12C)::SOS1", "result": 1, "unit": "nM"}]}]}
